Laboratory results: ChEMBL document CHEMBL1145498, “A systematic interaction map of validated kinase inhibitors with Ser/Thr kinases” (Proc Natl Acad Sci U S A, 2007)

target: Calcium/calmodulin-dependent protein kinase type 1G (Homo sapiens) (UniProt Q96NX5)
Sequence (Q96NX5 whole entry): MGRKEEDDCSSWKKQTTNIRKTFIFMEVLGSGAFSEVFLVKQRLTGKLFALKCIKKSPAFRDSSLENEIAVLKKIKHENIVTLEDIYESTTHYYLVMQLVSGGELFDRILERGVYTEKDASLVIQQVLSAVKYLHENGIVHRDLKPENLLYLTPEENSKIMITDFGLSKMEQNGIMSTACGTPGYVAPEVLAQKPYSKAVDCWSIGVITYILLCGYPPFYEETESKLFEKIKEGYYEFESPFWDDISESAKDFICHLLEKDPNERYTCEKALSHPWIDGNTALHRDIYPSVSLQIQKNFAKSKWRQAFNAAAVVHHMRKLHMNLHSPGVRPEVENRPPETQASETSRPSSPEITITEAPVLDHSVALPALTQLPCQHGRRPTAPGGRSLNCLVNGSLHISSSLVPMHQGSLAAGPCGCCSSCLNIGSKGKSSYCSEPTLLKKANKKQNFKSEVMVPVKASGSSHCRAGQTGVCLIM

| ΔTm [°C] | Structure (SMILES) |
| --- | --- |
| 0.1 | COc1cc(O)c2c(c1)oc(=O)c1c3cc(O)c(O)cc3oc21 [WEDELOLACTONE] |
| 0.6 | CN(C)CCCn1cc(C2=C(c3c[nH]c4ccccc34)C(=O)NC2=O)c2ccccc21 [GF-109203] |

| Structure (SMILES) | ΔTm [°C] |
| --- | --- |
| C[S+]([O-])c1ccc(CSc2nc(-c3ccc(F)cc3)c(-c3ccncc3)[nH]2)cc1 (centres undefined) | 0 |

target: Calcium/calmodulin-dependent protein kinase type II subunit alpha (Homo sapiens) (UniProt Q9UQM7)
Sequence (Q9UQM7 whole entry): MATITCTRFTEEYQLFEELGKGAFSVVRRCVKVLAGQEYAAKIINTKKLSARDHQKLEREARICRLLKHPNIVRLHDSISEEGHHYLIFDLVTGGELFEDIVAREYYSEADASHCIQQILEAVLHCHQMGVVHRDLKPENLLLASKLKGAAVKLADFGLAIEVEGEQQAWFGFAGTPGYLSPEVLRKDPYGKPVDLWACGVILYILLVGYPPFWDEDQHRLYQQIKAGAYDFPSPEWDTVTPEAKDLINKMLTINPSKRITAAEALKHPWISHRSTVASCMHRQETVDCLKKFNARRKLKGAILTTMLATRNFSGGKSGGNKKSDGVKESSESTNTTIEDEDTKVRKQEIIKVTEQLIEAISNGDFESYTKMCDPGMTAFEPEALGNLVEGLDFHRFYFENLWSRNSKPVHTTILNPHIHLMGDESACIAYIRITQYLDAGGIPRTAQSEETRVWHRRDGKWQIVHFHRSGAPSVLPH

| ΔTm [°C] | Structure (SMILES) |
| --- | --- |
| 1.2 | COc1cc(O)c2c(c1)oc(=O)c1c3cc(O)c(O)cc3oc21 [WEDELOLACTONE] |
| 2.4 | CN(C)CCCn1cc(C2=C(c3c[nH]c4ccccc34)C(=O)NC2=O)c2ccccc21 [GF-109203] |

| Structure (SMILES) | ΔTm [°C] |
| --- | --- |
| C[S+]([O-])c1ccc(CSc2nc(-c3ccc(F)cc3)c(-c3ccncc3)[nH]2)cc1 (centres undefined) | -0.1 |

target: Calcium/calmodulin-dependent protein kinase type II subunit beta (Homo sapiens) (UniProt Q13554)
Sequence (Q13554 whole entry): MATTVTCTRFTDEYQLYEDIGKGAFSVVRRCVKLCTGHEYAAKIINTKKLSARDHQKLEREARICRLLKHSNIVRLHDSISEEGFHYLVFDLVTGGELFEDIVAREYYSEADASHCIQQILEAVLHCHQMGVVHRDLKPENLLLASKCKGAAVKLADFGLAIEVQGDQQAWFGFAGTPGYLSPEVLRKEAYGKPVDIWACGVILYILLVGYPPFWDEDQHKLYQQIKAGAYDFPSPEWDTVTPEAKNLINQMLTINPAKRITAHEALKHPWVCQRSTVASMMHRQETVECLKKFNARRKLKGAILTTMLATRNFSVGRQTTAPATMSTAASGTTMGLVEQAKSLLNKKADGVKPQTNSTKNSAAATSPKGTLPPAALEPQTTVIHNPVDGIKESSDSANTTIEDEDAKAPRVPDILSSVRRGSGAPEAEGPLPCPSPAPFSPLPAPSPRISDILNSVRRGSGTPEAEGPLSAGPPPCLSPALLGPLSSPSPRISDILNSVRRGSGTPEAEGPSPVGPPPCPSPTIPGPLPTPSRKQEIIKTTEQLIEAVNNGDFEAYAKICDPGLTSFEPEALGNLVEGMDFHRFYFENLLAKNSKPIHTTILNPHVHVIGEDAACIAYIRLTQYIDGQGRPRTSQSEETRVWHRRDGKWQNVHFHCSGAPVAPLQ

| ΔTm [°C] | Structure (SMILES) |
| --- | --- |
| 0.7 | COc1cc(O)c2c(c1)oc(=O)c1c3cc(O)c(O)cc3oc21 [WEDELOLACTONE] |
| 0.9 | CN(C)CCCn1cc(C2=C(c3c[nH]c4ccccc34)C(=O)NC2=O)c2ccccc21 [GF-109203] |

| Structure (SMILES) | ΔTm [°C] |
| --- | --- |
| C[S+]([O-])c1ccc(CSc2nc(-c3ccc(F)cc3)c(-c3ccncc3)[nH]2)cc1 (centres undefined) | 0 |

target: Calcium/calmodulin-dependent protein kinase type II subunit delta (Homo sapiens) (UniProt Q13557)

| ΔTm [°C] | Structure (SMILES) |
| --- | --- |
| 0.5 | COc1cc(O)c2c(c1)oc(=O)c1c3cc(O)c(O)cc3oc21 [WEDELOLACTONE] |
| 1.1 | CN(C)CCCn1cc(C2=C(c3c[nH]c4ccccc34)C(=O)NC2=O)c2ccccc21 [GF-109203] |

| Structure (SMILES) | ΔTm [°C] |
| --- | --- |
| C[S+]([O-])c1ccc(CSc2nc(-c3ccc(F)cc3)c(-c3ccncc3)[nH]2)cc1 (centres undefined) | 0 |

target: Calcium/calmodulin-dependent protein kinase type II subunit gamma (Homo sapiens) (UniProt Q13555)

| ΔTm [°C] | Structure (SMILES) |
| --- | --- |
| 0.2 | COc1cc(O)c2c(c1)oc(=O)c1c3cc(O)c(O)cc3oc21 [WEDELOLACTONE] |
| 2.9 | CN(C)CCCn1cc(C2=C(c3c[nH]c4ccccc34)C(=O)NC2=O)c2ccccc21 [GF-109203] |

| Structure (SMILES) | ΔTm [°C] |
| --- | --- |
| C[S+]([O-])c1ccc(CSc2nc(-c3ccc(F)cc3)c(-c3ccncc3)[nH]2)cc1 (centres undefined) | -0.1 |

target: Dual specificity protein kinase CLK2 (Homo sapiens) (UniProt P49760)
Sequence (P49760 whole entry, looked up): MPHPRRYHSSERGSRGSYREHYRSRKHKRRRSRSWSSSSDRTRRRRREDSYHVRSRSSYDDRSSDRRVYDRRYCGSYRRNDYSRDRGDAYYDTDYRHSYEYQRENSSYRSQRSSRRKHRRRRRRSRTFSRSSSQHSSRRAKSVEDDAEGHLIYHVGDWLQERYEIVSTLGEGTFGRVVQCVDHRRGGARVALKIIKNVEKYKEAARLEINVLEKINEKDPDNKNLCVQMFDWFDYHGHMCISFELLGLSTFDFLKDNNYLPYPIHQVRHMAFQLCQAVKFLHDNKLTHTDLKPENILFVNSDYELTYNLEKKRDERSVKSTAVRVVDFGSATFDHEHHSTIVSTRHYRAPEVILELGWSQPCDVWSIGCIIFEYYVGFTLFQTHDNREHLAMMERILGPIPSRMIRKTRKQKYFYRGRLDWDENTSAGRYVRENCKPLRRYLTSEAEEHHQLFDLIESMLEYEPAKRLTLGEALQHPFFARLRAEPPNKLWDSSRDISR

| ΔTm [°C] | Structure (SMILES) |
| --- | --- |
| 1.2 | COc1cc(O)c2c(c1)oc(=O)c1c3cc(O)c(O)cc3oc21 [WEDELOLACTONE] |
| 4.1 | CN(C)CCCn1cc(C2=C(c3c[nH]c4ccccc34)C(=O)NC2=O)c2ccccc21 [GF-109203] |

| Structure (SMILES) | ΔTm [°C] |
| --- | --- |
| C[S+]([O-])c1ccc(CSc2nc(-c3ccc(F)cc3)c(-c3ccncc3)[nH]2)cc1 (centres undefined) | 0.2 |

target: Dual specificity protein kinase CLK3 (Homo sapiens) (UniProt P49761)
Sequence (P49761 whole entry, looked up): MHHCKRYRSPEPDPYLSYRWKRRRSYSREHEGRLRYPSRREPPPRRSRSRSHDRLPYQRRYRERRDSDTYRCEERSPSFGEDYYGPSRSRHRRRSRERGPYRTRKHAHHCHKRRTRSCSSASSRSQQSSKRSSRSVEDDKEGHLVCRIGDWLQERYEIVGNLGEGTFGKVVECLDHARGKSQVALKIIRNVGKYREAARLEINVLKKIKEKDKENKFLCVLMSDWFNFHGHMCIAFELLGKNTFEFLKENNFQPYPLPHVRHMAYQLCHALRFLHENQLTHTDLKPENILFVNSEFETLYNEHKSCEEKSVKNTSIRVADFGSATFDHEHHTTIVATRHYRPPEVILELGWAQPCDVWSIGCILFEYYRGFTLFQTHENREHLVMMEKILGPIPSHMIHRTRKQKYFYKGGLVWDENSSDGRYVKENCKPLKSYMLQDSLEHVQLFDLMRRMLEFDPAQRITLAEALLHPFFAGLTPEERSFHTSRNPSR

| ΔTm [°C] | Structure (SMILES) |
| --- | --- |
| 2.1 | COc1cc(O)c2c(c1)oc(=O)c1c3cc(O)c(O)cc3oc21 [WEDELOLACTONE] |
| 2.7 | CN(C)CCCn1cc(C2=C(c3c[nH]c4ccccc34)C(=O)NC2=O)c2ccccc21 [GF-109203] |

| Structure (SMILES) | ΔTm [°C] |
| --- | --- |
| C[S+]([O-])c1ccc(CSc2nc(-c3ccc(F)cc3)c(-c3ccncc3)[nH]2)cc1 (centres undefined) | -0.1 |

target: Casein kinase I isoform gamma-1 (Homo sapiens) (UniProt Q9HCP0)
Sequence (Q9HCP0 whole entry, looked up, canonical isoform): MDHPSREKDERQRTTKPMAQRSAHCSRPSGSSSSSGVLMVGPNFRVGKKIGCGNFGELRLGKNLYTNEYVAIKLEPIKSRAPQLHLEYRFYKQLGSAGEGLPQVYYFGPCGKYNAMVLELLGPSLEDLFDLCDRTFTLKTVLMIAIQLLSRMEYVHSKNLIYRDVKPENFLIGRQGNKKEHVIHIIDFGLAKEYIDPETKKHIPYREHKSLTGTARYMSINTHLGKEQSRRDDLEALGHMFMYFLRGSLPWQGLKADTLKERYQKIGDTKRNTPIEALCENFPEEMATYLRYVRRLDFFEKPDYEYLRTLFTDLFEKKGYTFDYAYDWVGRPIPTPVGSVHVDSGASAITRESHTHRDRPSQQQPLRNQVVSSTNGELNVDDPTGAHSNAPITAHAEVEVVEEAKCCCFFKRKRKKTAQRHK

| ΔTm [°C] | Structure (SMILES) |
| --- | --- |
| 1 | COc1cc(O)c2c(c1)oc(=O)c1c3cc(O)c(O)cc3oc21 [WEDELOLACTONE] |
| 1 | CN(C)CCCn1cc(C2=C(c3c[nH]c4ccccc34)C(=O)NC2=O)c2ccccc21 [GF-109203] |

| Structure (SMILES) | ΔTm [°C] |
| --- | --- |
| C[S+]([O-])c1ccc(CSc2nc(-c3ccc(F)cc3)c(-c3ccncc3)[nH]2)cc1 (centres undefined) | 0.2 |

target: Death-associated protein kinase 3 (Homo sapiens) (UniProt O43293)
Sequence (O43293 whole entry, looked up): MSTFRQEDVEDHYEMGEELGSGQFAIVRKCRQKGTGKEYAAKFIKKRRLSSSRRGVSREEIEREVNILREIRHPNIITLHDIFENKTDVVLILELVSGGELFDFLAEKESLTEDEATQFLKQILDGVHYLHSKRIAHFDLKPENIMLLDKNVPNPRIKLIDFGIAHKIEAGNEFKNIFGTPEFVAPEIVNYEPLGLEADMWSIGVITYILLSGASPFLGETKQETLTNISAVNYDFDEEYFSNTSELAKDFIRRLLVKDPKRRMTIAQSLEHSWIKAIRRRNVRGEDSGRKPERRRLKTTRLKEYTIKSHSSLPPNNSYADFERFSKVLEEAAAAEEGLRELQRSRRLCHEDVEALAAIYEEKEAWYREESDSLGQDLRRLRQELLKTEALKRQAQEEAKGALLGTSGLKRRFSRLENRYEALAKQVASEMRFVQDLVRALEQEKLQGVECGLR

| Structure (SMILES) | ΔTm [°C] |
| --- | --- |
| COc1cc(O)c2c(c1)oc(=O)c1c3cc(O)c(O)cc3oc21 [WEDELOLACTONE] | 0 |
| CN(C)CCCn1cc(C2=C(c3c[nH]c4ccccc34)C(=O)NC2=O)c2ccccc21 [GF-109203] | 2.8 |
| C[S+]([O-])c1ccc(CSc2nc(-c3ccc(F)cc3)c(-c3ccncc3)[nH]2)cc1 (centres undefined) | 0.4 |

target: T1, Myotonin-protein kinase (Homo sapiens) (UniProt Q09013)
T1 sequence (whole entry): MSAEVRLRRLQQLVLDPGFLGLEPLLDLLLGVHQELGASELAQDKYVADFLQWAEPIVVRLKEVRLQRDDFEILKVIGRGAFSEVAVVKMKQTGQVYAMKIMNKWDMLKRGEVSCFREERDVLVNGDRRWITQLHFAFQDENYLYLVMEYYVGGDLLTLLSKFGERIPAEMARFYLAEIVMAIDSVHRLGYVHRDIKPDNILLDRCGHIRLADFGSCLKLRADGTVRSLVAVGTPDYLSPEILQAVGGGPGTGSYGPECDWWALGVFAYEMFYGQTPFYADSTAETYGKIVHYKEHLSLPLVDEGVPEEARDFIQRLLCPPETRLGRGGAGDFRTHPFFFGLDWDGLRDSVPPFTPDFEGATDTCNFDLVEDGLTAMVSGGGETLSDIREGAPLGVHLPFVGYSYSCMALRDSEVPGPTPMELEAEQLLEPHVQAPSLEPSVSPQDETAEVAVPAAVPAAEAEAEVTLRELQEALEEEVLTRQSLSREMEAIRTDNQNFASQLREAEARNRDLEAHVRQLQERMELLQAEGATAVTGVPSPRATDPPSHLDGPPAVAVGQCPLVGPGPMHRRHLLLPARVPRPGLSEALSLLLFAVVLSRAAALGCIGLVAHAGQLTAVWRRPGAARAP

| ΔTm [°C] | Structure (SMILES) |
| --- | --- |
| 2.7 | COc1cc(O)c2c(c1)oc(=O)c1c3cc(O)c(O)cc3oc21 [WEDELOLACTONE] |
| 3.9 | CN(C)CCCn1cc(C2=C(c3c[nH]c4ccccc34)C(=O)NC2=O)c2ccccc21 [GF-109203] |

| Structure (SMILES) | ΔTm [°C] |
| --- | --- |
| C[S+]([O-])c1ccc(CSc2nc(-c3ccc(F)cc3)c(-c3ccncc3)[nH]2)cc1 (centres undefined) | 0.5 |

target: Dual specificity mitogen-activated protein kinase kinase 2 (Homo sapiens, UniProt P36507)
Sequence (P36507 whole entry): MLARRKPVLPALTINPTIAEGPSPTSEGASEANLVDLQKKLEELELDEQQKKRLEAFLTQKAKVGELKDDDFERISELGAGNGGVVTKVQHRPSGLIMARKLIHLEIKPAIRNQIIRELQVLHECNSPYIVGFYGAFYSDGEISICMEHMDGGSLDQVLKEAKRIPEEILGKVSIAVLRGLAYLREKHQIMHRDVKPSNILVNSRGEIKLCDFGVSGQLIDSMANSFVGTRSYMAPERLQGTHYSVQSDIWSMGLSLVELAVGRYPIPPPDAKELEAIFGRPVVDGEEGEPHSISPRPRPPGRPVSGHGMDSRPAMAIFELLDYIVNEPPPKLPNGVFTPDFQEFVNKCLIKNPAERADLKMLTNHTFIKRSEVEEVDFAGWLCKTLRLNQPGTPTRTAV

| ΔTm [°C] | Structure (SMILES) |
| --- | --- |
| 0.1 | COc1cc(O)c2c(c1)oc(=O)c1c3cc(O)c(O)cc3oc21 [WEDELOLACTONE] |
| 0.1 | CN(C)CCCn1cc(C2=C(c3c[nH]c4ccccc34)C(=O)NC2=O)c2ccccc21 [GF-109203] |

| Structure (SMILES) | ΔTm [°C] |
| --- | --- |
| C[S+]([O-])c1ccc(CSc2nc(-c3ccc(F)cc3)c(-c3ccncc3)[nH]2)cc1 (centres undefined) | -0.4 |

target: T2, Dual specificity mitogen-activated protein kinase kinase 6 (Homo sapiens) (UniProt P52564)
T2 sequence (whole entry): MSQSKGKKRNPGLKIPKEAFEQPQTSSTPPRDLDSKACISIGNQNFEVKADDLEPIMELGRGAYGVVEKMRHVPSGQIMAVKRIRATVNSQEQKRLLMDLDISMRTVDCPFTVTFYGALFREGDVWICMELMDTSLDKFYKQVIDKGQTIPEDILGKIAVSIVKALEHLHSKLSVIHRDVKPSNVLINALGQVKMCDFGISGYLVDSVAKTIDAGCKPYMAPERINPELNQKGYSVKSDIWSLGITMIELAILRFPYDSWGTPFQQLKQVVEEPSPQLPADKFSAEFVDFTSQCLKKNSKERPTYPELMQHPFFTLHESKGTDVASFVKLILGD

| ΔTm [°C] | Structure (SMILES) |
| --- | --- |
| 0.2 | COc1cc(O)c2c(c1)oc(=O)c1c3cc(O)c(O)cc3oc21 [WEDELOLACTONE] |
| 1.1 | CN(C)CCCn1cc(C2=C(c3c[nH]c4ccccc34)C(=O)NC2=O)c2ccccc21 [GF-109203] |

| Structure (SMILES) | ΔTm [°C] |
| --- | --- |
| C[S+]([O-])c1ccc(CSc2nc(-c3ccc(F)cc3)c(-c3ccncc3)[nH]2)cc1 (centres undefined) | 0.1 |

target: Mitogen-activated protein kinase 3 (Homo sapiens, UniProt P27361)
Sequence (P27361 whole entry): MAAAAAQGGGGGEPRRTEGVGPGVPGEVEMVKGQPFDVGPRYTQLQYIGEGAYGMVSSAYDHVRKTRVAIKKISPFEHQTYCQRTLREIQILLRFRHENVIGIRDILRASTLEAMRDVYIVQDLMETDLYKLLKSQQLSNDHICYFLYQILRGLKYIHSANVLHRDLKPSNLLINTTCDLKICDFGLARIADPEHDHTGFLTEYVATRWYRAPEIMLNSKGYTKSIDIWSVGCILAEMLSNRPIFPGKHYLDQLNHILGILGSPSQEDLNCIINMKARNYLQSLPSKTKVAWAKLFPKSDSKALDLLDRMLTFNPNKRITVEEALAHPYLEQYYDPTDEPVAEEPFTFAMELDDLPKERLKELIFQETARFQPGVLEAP

| ΔTm [°C] | Structure (SMILES) |
| --- | --- |
| 0.8 | COc1cc(O)c2c(c1)oc(=O)c1c3cc(O)c(O)cc3oc21 [WEDELOLACTONE] |
| 0.6 | CN(C)CCCn1cc(C2=C(c3c[nH]c4ccccc34)C(=O)NC2=O)c2ccccc21 [GF-109203] |

| Structure (SMILES) | ΔTm [°C] |
| --- | --- |
| C[S+]([O-])c1ccc(CSc2nc(-c3ccc(F)cc3)c(-c3ccncc3)[nH]2)cc1 (centres undefined) | 0.3 |

target: Mitogen-activated protein kinase 6 (Homo sapiens) (UniProt Q16659)
Sequence (Q16659 whole entry): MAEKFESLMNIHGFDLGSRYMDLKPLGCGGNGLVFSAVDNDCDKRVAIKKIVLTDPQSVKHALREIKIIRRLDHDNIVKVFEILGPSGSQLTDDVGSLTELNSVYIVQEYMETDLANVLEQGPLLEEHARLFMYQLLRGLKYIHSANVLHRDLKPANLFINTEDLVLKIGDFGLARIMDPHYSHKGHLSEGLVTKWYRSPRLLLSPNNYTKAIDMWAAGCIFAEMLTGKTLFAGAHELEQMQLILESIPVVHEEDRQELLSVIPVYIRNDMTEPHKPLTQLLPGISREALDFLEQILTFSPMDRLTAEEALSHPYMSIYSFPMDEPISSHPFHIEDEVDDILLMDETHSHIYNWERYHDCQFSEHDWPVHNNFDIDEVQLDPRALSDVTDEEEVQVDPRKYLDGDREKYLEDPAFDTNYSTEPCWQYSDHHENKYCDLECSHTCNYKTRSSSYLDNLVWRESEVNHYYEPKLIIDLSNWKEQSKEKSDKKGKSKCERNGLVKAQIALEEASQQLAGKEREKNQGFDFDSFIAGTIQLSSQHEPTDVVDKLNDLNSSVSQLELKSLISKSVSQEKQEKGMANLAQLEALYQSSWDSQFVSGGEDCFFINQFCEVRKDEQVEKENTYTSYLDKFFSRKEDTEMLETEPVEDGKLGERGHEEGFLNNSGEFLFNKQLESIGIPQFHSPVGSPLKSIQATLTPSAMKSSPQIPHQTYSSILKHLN

| ΔTm [°C] | Structure (SMILES) |
| --- | --- |
| 1.5 | COc1cc(O)c2c(c1)oc(=O)c1c3cc(O)c(O)cc3oc21 [WEDELOLACTONE] |
| -0.2 | CN(C)CCCn1cc(C2=C(c3c[nH]c4ccccc34)C(=O)NC2=O)c2ccccc21 [GF-109203] |

| Structure (SMILES) | ΔTm [°C] |
| --- | --- |
| C[S+]([O-])c1ccc(CSc2nc(-c3ccc(F)cc3)c(-c3ccncc3)[nH]2)cc1 (centres undefined) | -0.2 |

target: Serine/threonine-protein kinase OSR1 (Homo sapiens) (UniProt O95747)

| ΔTm [°C] | Structure (SMILES) |
| --- | --- |
| 1.9 | COc1cc(O)c2c(c1)oc(=O)c1c3cc(O)c(O)cc3oc21 [WEDELOLACTONE] |
| 2.4 | CN(C)CCCn1cc(C2=C(c3c[nH]c4ccccc34)C(=O)NC2=O)c2ccccc21 [GF-109203] |

| Structure (SMILES) | ΔTm [°C] |
| --- | --- |
| C[S+]([O-])c1ccc(CSc2nc(-c3ccc(F)cc3)c(-c3ccncc3)[nH]2)cc1 (centres undefined) | 0.1 |

target: Serine/threonine-protein kinase PLK1 (Homo sapiens) (UniProt P53350)

| ΔTm [°C] | Structure (SMILES) |
| --- | --- |
| 1.4 | COc1cc(O)c2c(c1)oc(=O)c1c3cc(O)c(O)cc3oc21 [WEDELOLACTONE] |
| 1 | CN(C)CCCn1cc(C2=C(c3c[nH]c4ccccc34)C(=O)NC2=O)c2ccccc21 [GF-109203] |

| Structure (SMILES) | ΔTm [°C] |
| --- | --- |
| C[S+]([O-])c1ccc(CSc2nc(-c3ccc(F)cc3)c(-c3ccncc3)[nH]2)cc1 (centres undefined) | -0.2 |

target: TRAF2 and NCK-interacting protein kinase (Homo sapiens) (UniProt Q9UKE5)

| ΔTm [°C] | Structure (SMILES) |
| --- | --- |
| 1.3 | COc1cc(O)c2c(c1)oc(=O)c1c3cc(O)c(O)cc3oc21 [WEDELOLACTONE] |
| 2 | CN(C)CCCn1cc(C2=C(c3c[nH]c4ccccc34)C(=O)NC2=O)c2ccccc21 [GF-109203] |

| Structure (SMILES) | ΔTm [°C] |
| --- | --- |
| C[S+]([O-])c1ccc(CSc2nc(-c3ccc(F)cc3)c(-c3ccncc3)[nH]2)cc1 (centres undefined) | 0.1 |

target: T3, Serine/threonine-protein kinase VRK1 (Homo sapiens) (UniProt Q99986)
T3 sequence (whole entry): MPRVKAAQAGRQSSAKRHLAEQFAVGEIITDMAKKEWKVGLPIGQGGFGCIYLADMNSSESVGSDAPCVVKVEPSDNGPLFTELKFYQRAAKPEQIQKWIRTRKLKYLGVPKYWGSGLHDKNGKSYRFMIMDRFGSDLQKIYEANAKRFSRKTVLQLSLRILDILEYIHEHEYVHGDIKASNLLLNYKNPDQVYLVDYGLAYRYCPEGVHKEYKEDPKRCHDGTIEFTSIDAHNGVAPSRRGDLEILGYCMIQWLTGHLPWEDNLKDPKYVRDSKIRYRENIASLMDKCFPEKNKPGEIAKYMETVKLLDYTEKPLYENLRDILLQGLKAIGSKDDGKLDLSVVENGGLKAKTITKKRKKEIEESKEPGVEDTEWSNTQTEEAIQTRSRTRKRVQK

| ΔTm [°C] | Structure (SMILES) |
| --- | --- |
| 0 | COc1cc(O)c2c(c1)oc(=O)c1c3cc(O)c(O)cc3oc21 [WEDELOLACTONE] |
| 0.2 | CN(C)CCCn1cc(C2=C(c3c[nH]c4ccccc34)C(=O)NC2=O)c2ccccc21 [GF-109203] |

| Structure (SMILES) | ΔTm [°C] |
| --- | --- |
| C[S+]([O-])c1ccc(CSc2nc(-c3ccc(F)cc3)c(-c3ccncc3)[nH]2)cc1 (centres undefined) | -0.1 |
